These molecules were tested against SHP2 (Homo sapiens (Human), UniProt Q06124) (assay: SHP2-catalyzed hydrolysis of p-nitrophenyl phosphate (pNPP)). Conditions: not given.
Type: biochemical
Experimental: Libraries 11a-d were screened at ˜5 μM for SHP2 inhibitors without further purification. The ability of the library components to inhibit the SHP2-catalyzed hydrolysis of p-nitrophenyl phosphate (pNPP) was evaluated at pH 7.0 and 25° C. More particularly, the phosphatase activity of SHP2 was assayed using p-nitrophenyl phosphate (pNPP) as a substrate at 25° C. in 50 mM 3,3-dimethylglutarate buffer, pH 7.0, containing 1 mM EDTA with an ionic strength of […] adjusted by NaCl. The libraries were screened in a 96-well format at 5 μM compound concentration. […] The nonenzymatic hydrolysis of pNPP was corrected by measuring the control without the addition of enzyme. The amount of product p-nitrophenol was determined from the absorbance at 405 nm detected by a Spectra MAX340 microplate spectrophotometer (Molecular Devices, Sunnyvale, Calif.) using a molar extinction coefficient of 18,000 M^−1 cm^−1. […] IC50 values for selected resynthesized and purified hits were calculated by fitting the absorbance at 405 nm versus inhibitor concentration to the following equation: AI/A0=IC50/(IC50+[I]) where AI is the absorbance at 405 nm of the sample in the presence of the inhibitor; A0 is the absorbance at 405 nm in the absence of inhibitor; and [I] is the concentration of the inhibitor.

SMILES	IC50 for SHP2, times higher than that of 11a-1	SHP2 inhibition, in words
Cn1c(-c2cccc(NC(=O)CCC(=O)Nc3ccc(-c4ccsc4)cc3)c2)c(I)c2cc(C(=O)O)c(O)cc21 [11c-1, 6-hydroxy-3-iodo-1-methyl-2-(3-(4-oxo-4-((4-(thiophen-3-yl)phenyl)amino)butanamido)phenyl)-1H-indole-5-carboxylic acid]	more than 10 times	
Cn1c(-c2cccc(NC(=O)C(=O)Nc3cccc(OCc4ccccc4)c3)c2)c(I)c2cc(C(=O)O)c(O)cc21 [11a-6, 2-(3-(2-((3-(benzyloxy)phenyl)amino)-2-oxoacetamido)phenyl)-6-hydroxy-3-iodo-1-methyl-1H-indole-5-carboxylic acid]		submicromolar
Cn1c(-c2cccc(NC(=O)C(=O)Nc3ccc(-c4ccccc4)cc3)c2)c(I)c2cc(C(=O)O)c(O)cc21 [11a-2, 2-(3-(2-([1,1′-biphenyl]-4-ylamino)-2-oxoacetamido)phenyl)-6-hydroxy-3-iodo-1-methyl-1H-indole-5-carboxylic acid]		strongly inhibited

Same assay, conditions: pNPP substrate, pH 7.0, 25° C.

SMILES	IC50 [nM]
Cn1c(-c2cccc(NC(=O)C(=O)Nc3cccc(F)c3)c2)c(I)c2cc(C(=O)O)c(O)cc21 [11a-19, 2-(3-(2-((3-fluorophenyl)amino)-2-oxoacetamido)phenyl)-6-hydroxy-3-iodo-1-methyl-1H-indole-5-carboxylic acid]	4660 ± 500
Cn1c(-c2cccc(NC(=O)C(=O)Nc3ccc(F)cc3)c2)c(I)c2cc(C(=O)O)c(O)cc21 [11a-15, 2-(3-(2-((4-fluorophenyl)amino)-2-oxoacetamido)phenyl)-6-hydroxy-3-iodo-1-methyl-1H-indole-5-carboxylic acid]	1840 ± 90
Cn1c(-c2cccc(NC(=O)C(=O)Nc3ccc(I)cc3)c2)c(I)c2cc(C(=O)O)c(O)cc21 [11a-8, 6-hydroxy-3-iodo-2-(3-(2-((4-iodophenyl)amino)-2-oxoacetamido)phenyl)-1-methyl-1H-indole-5-carboxylic acid]	1200 ± 210
Cn1c(-c2cccc(NC(=O)C(=O)Nc3cccc(-c4ccc(C#N)cc4)c3)c2)c(I)c2cc(C(=O)O)c(O)cc21 [11a-25, 2-(3-(2-((4′-cyano-[1,1′-biphenyl]-3-yl)amino)-2-oxoacetamido)phenyl)-6-hydroxy-3-iodo-1-methyl-1H-indole-5-carboxylic acid]	420 ± 20
Cn1c(-c2cccc(NC(=O)C(=O)Nc3ccc(-c4cccc(C#N)c4)cc3)c2)c(I)c2cc(C(=O)O)c(O)cc21 [11a-22, 2-(3-(2-((3′-cyano-[1,1′-biphenyl]-4-yl)amino)-2-oxoacetamido)phenyl)-6-hydroxy-3-iodo-1-methyl-1H-indole-5-carboxylic acid]	310 ± 20
Cn1c(-c2cccc(NC(=O)C(=O)Nc3cccc(Br)c3)c2)c(I)c2cc(C(=O)O)c(O)cc21 [11a-18, 2-(3-(2-((3-bromophenyl)amino)-2-oxoacetamido)phenyl)-6-hydroxy-3-iodo-1-methyl-1H-indole-5-carboxylic acid]	2730 ± 550
Cn1c(-c2cccc(NC(=O)CCC(=O)Nc3cccc(-c4ccccc4)c3)c2)c(I)c2cc(C(=O)O)c(O)cc21 [11c-5, 2-(3-(4-([1,1′-biphenyl]-3-ylamino)-4-oxobutanamido)phenyl)-6-hydroxy-3-iodo-1-methyl-1H-indole-5-carboxylic acid]	5300 ± 900
Cn1c(-c2cccc(NC(=O)C(=O)Nc3cccc(OCc4ccccc4)c3)c2)c(I)c2cc(C(=O)O)c(O)cc21 [11a-6, 2-(3-(2-((3-(benzyloxy)phenyl)amino)-2-oxoacetamido)phenyl)-6-hydroxy-3-iodo-1-methyl-1H-indole-5-carboxylic acid]	860 ± 140
Cn1c(-c2cccc(NC(=O)C(=O)Nc3ccc(-n4ccnc4)cc3)c2)c(I)c2cc(C(=O)O)c(O)cc21 [11a-12, 2-(3-(2-((4-(1H-imidazol-1-yl)phenyl)amino)-2-oxoacetamido)phenyl)-6-hydroxy-3-iodo-1-methyl-1H-indole-5-carboxylic acid]	1490 ± 150
Cn1c(-c2cccc(NC(=O)C(=O)Nc3ccc(-c4ccccc4)cc3)c2)c(I)c2cc(C(=O)O)c(O)cc21 [11a-2, 2-(3-(2-([1,1′-biphenyl]-4-ylamino)-2-oxoacetamido)phenyl)-6-hydroxy-3-iodo-1-methyl-1H-indole-5-carboxylic acid]	620 ± 50
Cn1c(-c2cccc(NC(=O)C(=O)Nc3cccc(-c4ccco4)c3)c2)c(I)c2cc(C(=O)O)c(O)cc21 [11a-24, 2-(3-(2-((3-(furan-2-yl)phenyl)amino)-2-oxoacetamido)phenyl)-6-hydroxy-3-iodo-1-methyl-1H-indole-5-carboxylic acid]	380 ± 10
Cn1c(-c2cccc(NC(=O)C(=O)Nc3cccc(OC(F)(F)F)c3)c2)c(I)c2cc(C(=O)O)c(O)cc21 [11a-17, 6-hydroxy-3-iodo-1-methyl-2-(3-(2-oxo-2-((3-(trifluoromethoxy)phenyl)amino)acetamido)phenyl)-1H-indole-5-carboxylic acid]	2390 ± 150
Cn1c(-c2cccc(NC(=O)C(=O)Nc3ccc(Cl)c(C(F)(F)F)c3)c2)c(I)c2cc(C(=O)O)c(O)cc21 [11a-13, 2-(3-(2-((4-chloro-3-(trifluoromethyl)phenyl)amino)-2-oxoacetamido)phenyl)-6-hydroxy-3-iodo-1-methyl-1H-indole-5-carboxylic acid]	1760 ± 80
Cn1c(-c2cccc(NC(=O)C(=O)Nc3ccccc3-c3ccc(CO)o3)c2)c(I)c2cc(C(=O)O)c(O)cc21 [11a-23, 6-hydroxy-2-(3-(2-((2-(5-(hydroxymethyl)furan-2-yl)phenyl)amino)-2-oxoacetamido)phenyl)-3-iodo-1-methyl-1H-indole-5-carboxylic acid]	370 ± 10
Cn1c(-c2cccc(NC(=O)C(=O)Nc3cccc(I)c3)c2)c(I)c2cc(C(=O)O)c(O)cc21 [11a-20, 6-hydroxy-3-iodo-2-(3-(2-((3-iodophenyl)amino)-2-oxoacetamido)phenyl)-1-methyl-1H-indole-5-carboxylic acid]	5420 ± 1010
Cn1c(-c2cccc(NC(=O)CCC(=O)O)c2)c(I)c2cc(C(=O)O)c(O)cc21 [10c, 2-(3-(3-carboxypropanamido)phenyl)-6-hydroxy-3-iodo-1-methyl-1H-indole-5-carboxylic acid]	56000
Cn1c(-c2cccc(NC(=O)C(=O)Nc3ccccc3-c3nc4ccccc4[nH]3)c2)c(I)c2cc(C(=O)O)c(O)cc21 [11a-9, 2-(3-(2-((2-(1H-benzo[d]imidazol-2-yl)phenyl)amino)-2-oxoacetamido)phenyl)-6-hydroxy-3-iodo-1-methyl-1H-indole-5-carboxylic acid]	1250 ± 60
Cn1c(-c2cccc(NC(=O)C(=O)Nc3cccc(Cl)c3)c2)c(I)c2cc(C(=O)O)c(O)cc21 [11a-11, 2-(3-(2-((3-chlorophenyl)amino)-2-oxoacetamido)phenyl)-6-hydroxy-3-iodo-1-methyl-1H-indole-5-carboxylic acid]	1460 ± 450
Cn1c(-c2cccc(NC(=O)C(=O)Nc3ccc(-c4ccc(C#N)cc4)cc3)c2)c(I)c2cc(C(=O)O)c(O)cc21 [11a-21, 2-(3-(2-((4′-cyano-[1,1′-biphenyl]-4-yl)amino)-2-oxoacetamido)phenyl)-6-hydroxy-3-iodo-1-methyl-1H-indole-5-carboxylic acid]	220 ± 10
Cn1c(-c2cccc(NC(=O)C(=O)Nc3nc4ccc(Br)cc4s3)c2)c(I)c2cc(C(=O)O)c(O)cc21 [11a-4, 2-(3-(2-((6-bromobenzo[d]thiazol-2-yl)amino)-2-oxoacetamido)phenyl)-6-hydroxy-3-iodo-1-methyl-1H-indole-5-carboxylic acid]	760 ± 110

Further lines, results first:

IC50 [nM]	SMILES
2300	Cn1c(-c2cccc(NC(=O)CCC(=O)Nc3ccc(-c4ccsc4)cc3)c2)c(I)c2cc(C(=O)O)c(O)cc21 [11c-1, 6-hydroxy-3-iodo-1-methyl-2-(3-(4-oxo-4-((4-(thiophen-3-yl)phenyl)amino)butanamido)phenyl)-1H-indole-5-carboxylic acid]
14000 ± 1000	Cn1c(-c2cccc(NC(=O)CCC(=O)NCc3ccc4c(c3)OCO4)c2)c(I)c2cc(C(=O)O)c(O)cc21 [11c-9, 2-(3-(4-((benzo[d][1,3]dioxol-5-ylmethyl)amino)-4-oxobutanamido)phenyl)-6-hydroxy-3-iodo-1-methyl-1H-indole-5-carboxylic acid]
> 20000	CCCN(CC1CC1)C(=O)CCC(=O)Nc1cccc(-c2c(I)c3cc(C(=O)O)c(O)cc3n2C)c1 [11c-10, 2-(3-(4-((cyclopropylmethyl)(propyl)amino)-4-oxobutanamido)phenyl)-6-hydroxy-3-iodo-1-methyl-1H-indole-5-carboxylic acid]
26000 ± 5000	Cn1c(-c2cccc(NC(=O)CCC(=O)Nc3nccs3)c2)c(I)c2cc(C(=O)O)c(O)cc21 [11c-11, 6-hydroxy-3-iodo-1-methyl-2-(3-(4-oxo-4-(thiazol-2-ylamino)butanamido)phenyl)-1H-indole-5-carboxylic acid]
4500 ± 1400	Cn1c(-c2cccc(NC(=O)CCC(=O)Nc3cccc(OCc4ccccc4)c3)c2)c(I)c2cc(C(=O)O)c(O)cc21 [11c-4, 2-(3-(4-((3-(benzyloxy)phenyl)amino)-4-oxobutanamido)phenyl)-6-hydroxy-3-iodo-1-methyl-1H-indole-5-carboxylic acid]
10700 ± 2400	CC(C)c1ccc(NC(=O)CCC(=O)Nc2cccc(-c3c(I)c4cc(C(=O)O)c(O)cc4n3C)c2)cc1 [11c-8, 6-hydroxy-3-iodo-2-(3-(4-((4-isopropylphenyl)amino)-4-oxobutanamido)phenyl)-1-methyl-1H-indole-5-carboxylic acid]
3600 ± 300	Cn1c(-c2cccc(NC(=O)CCC(=O)Nc3ccc(Oc4ccccc4)cc3)c2)c(I)c2cc(C(=O)O)c(O)cc21 [11c-2, 6-hydroxy-3-iodo-1-methyl-2-(3-(4-oxo-4-((4-phenoxyphenyl)amino)butanamido)phenyl)-1H-indole-5-carboxylic acid]
8600 ± 2300	Cn1c(-c2cccc(NC(=O)CCC(=O)Nc3ccc(OC(F)(F)F)cc3)c2)c(I)c2cc(C(=O)O)c(O)cc21 [11c-7, 6-hydroxy-3-iodo-1-methyl-2-(3-(4-oxo-4-((4-(trifluoromethoxy)phenyl)amino)butanamido)phenyl)-1H-indole-5-carboxylic acid]
7200 ± 900	Cn1c(-c2cccc(NC(=O)CCC(=O)N3CCc4cc(Br)ccc43)c2)c(I)c2cc(C(=O)O)c(O)cc21 [11c-6, 2-(3-(4-(5-bromoindolin-1-yl)-4-oxobutanamido)phenyl)-6-hydroxy-3-iodo-1-methyl-1H-indole-5-carboxylic acid]
